Measurements reported in patent publication US20260297081A1, “COMPOUNDS AND METHODS OF TREATING CANCERS” (Cullgen Inc., priority 2023, published 2026).

How the values were obtained:
Type in all cases: cell-based
[1] = tested on: p-Rb; assay: Immunoblotting of Rb phosphorylation (FIG. 1A-1B); details: Calu-1 (4 hours), MCF7 (24 hours)
Protocol: (§1) Calu-1 cells were treated with heterobifunctional compound CPD-10, or CDK4/6 inhibitor palbociclib at indicated concentrations for 4 hours (FIG. 1A). MCF7 cells were deprived of serum for 2 hours followed by treatment with CPD-10, or palbociclib at indicated concentrations for 24 hours (FIG. 1B).
(§2) Antibody and Reagent Anti-cyclin D1 (29785), anti-cyclin D2 (3741S), anti-cyclin D3 (2936S), anti-CDK4 (127905), anti-CDK6 (3136S), anti-phospho-Rb (8516S), anti-FoxM1 (54365), anti-cyclinA2(4656S), anti-vinculin antibody (187995) antibodies were purchased from Cell Signaling Technology. HRP-conjugated anti-α-tubulin antibody and anti-α-GAPDH antibody were purchased from GNI. Media, and other cell culture reagents were purchased from Thermo Fisher Scientific. CellTiter-Glo Luminescent Assay kit was purchased from Promega.
Calu-1, T47D, MCF7, HCC1428 and other cells were cultured at 37° C. with 5% CO2 in RPMI 1640 or DMEM medium supplemented with 10% fetal bovine serum. Cells were authenticated using the short tandem repeat (STR) assays. […]
Cultured cells were washed with cold PBS once and lysed in cold RIPA buffer supplemented with protease inhibitors and phosphatase inhibitors (Beyotime Biotechnology). […] Total protein concentrations in the lysates were determined following BCA assays (Beyotime Biotechnology). […] Protein bands were quantitated using the Image Lab software provided by Bio-Rad.

[2] = tested on: T47D parental cells; assay: CellTiter-Lumi cell viability assay, T47D parental cells, 6 days (FIG. 4); details: Homo sapiens, 144 h
Protocol: Furthermore, we developed one ER^+ breast cancer T47D model with acquired resistance after long period of treatment with 1 μM palbociclib (over IC90). Cells were deemed resistant when growing in the presence of palbo at the same rate as parental cells. Palbo resistance was determined by CellTiter-Lumi cell viability assay (FIG. 4, IC50>10,000 nM).

[3] = tested on: CCND1, CCND3, and CDK4 in MCF7 cells; assay: Immunoblot of CCND1, CCND3 and CDK4 protein levels in MCF7 cells under serum starvation (FIG. 1B, 24 hours); details: MCF7, reduction of CCND1, CCND3, and CDK4 protein levels, serum starvation, 24 hours
Protocol: Specific exemplary heterobifunctional compounds were characterized in Calu-1, MCF7, T47D and other cells. Cells that express cyclin D1-3 and CDK4/6 proteins were treated with heterobifunctional compounds disclosed herein at indicated concentrations. MCF7 cells were deprived of serum for 2 hours followed by the treatment with heterobifunctional compounds. Cells were collected, lysed and subject to immunoblotting using an antibody specific to CCND1, CCND2, CCND3, CDK4, or FoxM1, cyclin A2, or phosphorylated Rb (S807/811) proteins. Tubulin or GAPDH was used as the loading control. DMSO treatment was used as the negative control.

[4] = tested on: Calu-1 cells; assay: Anti-proliferation (viability) of NSCLC Calu-1 cells, 3 days (Table 7, FIG. 2B); details: Homo sapiens, 72 h; Calu-1 cells, 3 days, 10-point serial dilution; read-out: GI IC50 in Calu-1
Method in brief: (§3)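 Cells treated with heterobifunctional compounds in 10-point serial dilution, then viability measured; Calu-1 NSCLC cells exposed for 3 days, ER+ T47D breast cancer cells for 6 days.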

[5] = tested on: CCND3; assay: Immunoblotting of CCND3 protein level in Calu-1 and MCF7 cells (FIG. 1A-1B)
Protocol: as §1, §2
(§4) Calu-1, T47D, MCF7, HCC1428 and other cells were cultured at 37° C. with 5% CO2 in RPMI 1640 or DMEM medium supplemented with 10% fetal bovine serum. Cells were authenticated using the short tandem repeat (STR) assays. Mycoplasma test results were negative. For palbo-resistant cell model, T47D cells were cultured long-term to resistance in the presence of 1 μM Palbociclib. Cells were deemed resistant when growing in the presence of Palbo at the same rate as parental cells.
(§5) Cultured cells were washed with cold PBS once and lysed in cold RIPA buffer supplemented with protease inhibitors and phosphatase inhibitors (Beyotime Biotechnology). The solutions were then incubated at 4 ? for 30 min with gentle agitation to fully lysed cells. Cell lysates were centrifuged at 13,000 rpm for 10 min at 4 ? and pellets were discarded. Total protein concentrations in the lysates were determined following BCA assays (Beyotime Biotechnology). Cell lysates were mixed with Laemmli loading buffer and heated at 99° C. for 5 min. Proteins were resolved on SDS-PAGE and visualized using Western ECL Substrate kits on a ChemiDoc MP Imaging system (Bio-Rad). Protein bands were quantitated using the Image Lab software provided by Bio-Rad.

[6] = tested on: T47D palbo-resistant cells; assay: Cell viability in T47D palbociclib-resistant model (FIG. 4); details: 10-point serial dilution, 6 days
Protocol: T47D cells were cultured long-term to resistance in the presence of 1 μM Palbociclib. Palbo resistance was determined by CellTiter-Lumi cell viability assay. T47D parental or palbo-resistant cells were treated with palbociclib, or heterobifunctional compounds CPD-10 or CPD-39 following a 10-point serial dilution for 6 days.
as §4
Cells were seeded at a density of 2,000-5,000 cells per well in 96-well assay plates and treated with test compounds following a 10-point serial dilution for 3-6 days. Cell viability was determined using the CellTiter-Lumi assay kit according to the manufacturer's instructions. The dose-response curves were determined and IC50 values were calculated using the GraphPad Prism software following a nonlinear regression (least squares fit) method. Data presented was mean±standard deviation (SD)unless otherwise indicated.

[7] = tested on: T47D cells; assay: Anti-proliferation (viability) of ER+ breast cancer T47D cells, 6 days (Table 7, FIG. 2B); details: Homo sapiens, 144 h; T47D cells, 6 days, 10-point serial dilution; read-out: GI IC50 in T47D
Method in brief: as §3

[8] = target: CDK4 (Homo sapiens, UniProt P11802+Q16531); assay: Immunoblotting of CDK4 protein level in Calu-1 and MCF7 cells (FIG. 1A-1B); parameters: Cells that express cyclin D1-3 and CDK4/6 proteins were treated with heterobifunctional compounds; endogenous in cells; host or cells: Calu-1
Protocol: as §1, §2, §4, §5

[9] = tested on: HCC1428 cells; assay: Flow cytometric analysis of Annexin V/7-AAD stained HCC1428 cells (apoptosis), 6 days (FIG. 3B); details: HCC1428, dose approximating IC90, 6 days
Protocol: T47D cells were treated with DMSO, palbociclib, heterobifunctional compound CPD-10 for 6 days at doses approximating IC50and IC90 concentrations as indicated (FIG. 3A). HCC1428 cells were treated with DMSO, palbociclib, heterobifunctional compound CPD-10, or its negative control compound CPD-143 for 6 days at doses approximating IC90 concentrations as indicated (FIG. 3B). Cells were harvested by trypsinization, staining was carried out using the Annexin V Apoptosis Detection Kit. The percentages of early apoptotic (Annexin V^+7-AAD^−, lower right quadrant), late apoptotic (Annexin V^+7-AAD^+, upper right quadrant) and necrotic cells (Annexin V^−7-AAD^+, upper left quadrant) are indicated on dot plots.

[10] = MCF7 cells, serum deprived 2 hours, treated 24 hours

Sequence of CDK4 (P11802 2-303 limits assumed): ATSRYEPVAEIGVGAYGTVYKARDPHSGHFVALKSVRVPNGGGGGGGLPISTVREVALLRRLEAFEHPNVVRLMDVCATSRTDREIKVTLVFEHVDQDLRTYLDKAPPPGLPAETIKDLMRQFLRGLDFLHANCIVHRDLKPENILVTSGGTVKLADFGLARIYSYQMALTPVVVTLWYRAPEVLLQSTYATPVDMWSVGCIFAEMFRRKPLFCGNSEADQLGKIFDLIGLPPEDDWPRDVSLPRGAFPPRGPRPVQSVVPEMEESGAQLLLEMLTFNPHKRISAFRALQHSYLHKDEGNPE
Sequence of CDK4 (P24385 whole entry partner): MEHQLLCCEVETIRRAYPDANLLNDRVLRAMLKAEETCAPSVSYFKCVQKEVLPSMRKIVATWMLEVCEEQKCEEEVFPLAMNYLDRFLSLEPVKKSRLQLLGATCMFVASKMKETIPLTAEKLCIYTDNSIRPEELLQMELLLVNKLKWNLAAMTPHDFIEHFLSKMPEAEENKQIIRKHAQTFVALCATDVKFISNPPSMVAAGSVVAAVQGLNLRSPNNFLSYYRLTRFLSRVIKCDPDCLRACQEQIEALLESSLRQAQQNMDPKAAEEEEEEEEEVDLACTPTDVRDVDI
Sequence of CDK4 (Q16531 2-1140 limits assumed): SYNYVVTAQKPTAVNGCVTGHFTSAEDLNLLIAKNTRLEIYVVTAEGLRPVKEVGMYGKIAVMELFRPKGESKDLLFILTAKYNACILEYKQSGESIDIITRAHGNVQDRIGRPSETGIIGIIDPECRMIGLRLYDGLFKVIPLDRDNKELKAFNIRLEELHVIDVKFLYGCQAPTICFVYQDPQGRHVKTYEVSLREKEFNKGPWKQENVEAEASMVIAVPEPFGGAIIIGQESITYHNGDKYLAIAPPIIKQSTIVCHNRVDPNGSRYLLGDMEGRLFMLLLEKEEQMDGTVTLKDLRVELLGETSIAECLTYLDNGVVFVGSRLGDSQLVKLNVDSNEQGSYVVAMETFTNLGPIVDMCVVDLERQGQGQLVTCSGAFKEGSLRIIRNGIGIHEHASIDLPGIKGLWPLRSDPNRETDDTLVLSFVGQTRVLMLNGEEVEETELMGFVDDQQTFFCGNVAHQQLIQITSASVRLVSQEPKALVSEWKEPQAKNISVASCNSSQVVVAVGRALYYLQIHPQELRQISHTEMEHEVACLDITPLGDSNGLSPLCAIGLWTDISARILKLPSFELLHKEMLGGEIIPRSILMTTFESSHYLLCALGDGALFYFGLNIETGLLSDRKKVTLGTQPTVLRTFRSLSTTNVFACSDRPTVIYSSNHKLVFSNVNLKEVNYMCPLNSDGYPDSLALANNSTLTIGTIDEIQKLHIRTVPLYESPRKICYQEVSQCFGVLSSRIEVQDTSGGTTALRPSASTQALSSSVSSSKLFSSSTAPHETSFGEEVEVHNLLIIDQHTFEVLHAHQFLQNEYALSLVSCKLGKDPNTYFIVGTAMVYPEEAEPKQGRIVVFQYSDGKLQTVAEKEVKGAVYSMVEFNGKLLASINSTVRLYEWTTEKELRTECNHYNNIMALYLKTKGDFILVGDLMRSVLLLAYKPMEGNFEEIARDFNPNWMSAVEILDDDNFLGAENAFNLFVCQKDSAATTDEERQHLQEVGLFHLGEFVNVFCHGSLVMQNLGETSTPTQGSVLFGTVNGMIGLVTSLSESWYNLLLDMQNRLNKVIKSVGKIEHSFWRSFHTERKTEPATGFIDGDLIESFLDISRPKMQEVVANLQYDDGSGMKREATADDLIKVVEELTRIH

DC50 [3]: < 20 nM
IC50 [4]: ≤ 10 nM
IC50 [7]: ≤ 50 nM
SMILES: CNc1ccc(C(=O)Nc2ccc(N(C)C)nn2)c(NCCCCCCCNC(=O)CN2CCN(c3ccc(Nc4ncc5c(C)c(C(C)=O)c(=O)n(C6CCCC6)c5n4)nc3)CC2)n1 [CPD-10, 2-((7-(2-(4-(6-((6-acetyl-8-cyclopentyl-5-methyl-7-oxo-7,8-dihydropyrido[2,3-d]pyrimidin-2-yl)amino)pyridin-3-yl)piperazin-1-yl)acetamido)heptyl)amino)-N-(6-(dimethylamino)pyridazin-3-yl)-6-(methylamino)nicotinamide]
Rb phosphorylation [1]: inhibited downstream FoxM1 and cyclin A2 protein levels, and Rb phosphorylation in a concentration-dependent manner
IC50 [2]: 19.5 nM
CCND3 protein level ([5]; Calu-1 cells, 4 hours): reduced CCND1, CCND3, and CDK4 protein levels in a concentration-dependent manner in both cell lines
CCND3 protein level [5, 10]: reduced CCND1, CCND3, and CDK4 protein levels in a concentration-dependent manner in both cell lines
cell viability in palbociclib-resistant model [6]: remained effective in T47D palbo-resistant model
CDK4 protein level ([8]; Calu-1 cells, 4 hours): reduced CCND1, CCND3, and CDK4 protein levels in a concentration-dependent manner in both cell lines
CDK4 protein level [8, 10]: reduced CCND1, CCND3, and CDK4 protein levels in a concentration-dependent manner in both cell lines
Annexin V+ population [9]: 55.8%
